# Test results from patent US10377711B2, “Cannabinoid type 1 receptor modulators” (priority 2014, dated 2019).
# Key:
# [1] = target: T1, CB1 receptor (HEK293 CB1 β-arrestin cells) (Homo sapiens, UniProt P21554); test: PathHunter β-Arrestin assay, enhancement of anandamide stimulation; type: cell-based; conditions: maximum % increase in stimulation caused by anandamide; for Potency % Enhancement 100 nM: 100 nM test compound; for Potency % Enhancement 1000 nM: 1000 nM test compound; for Potency % Enhancement 300 nM: 300 nM test compound
# T1 construct: host or cells: HEK293 CB1 β-arrestin cells (PathHunter)
# T1 sequence (P21554 whole entry): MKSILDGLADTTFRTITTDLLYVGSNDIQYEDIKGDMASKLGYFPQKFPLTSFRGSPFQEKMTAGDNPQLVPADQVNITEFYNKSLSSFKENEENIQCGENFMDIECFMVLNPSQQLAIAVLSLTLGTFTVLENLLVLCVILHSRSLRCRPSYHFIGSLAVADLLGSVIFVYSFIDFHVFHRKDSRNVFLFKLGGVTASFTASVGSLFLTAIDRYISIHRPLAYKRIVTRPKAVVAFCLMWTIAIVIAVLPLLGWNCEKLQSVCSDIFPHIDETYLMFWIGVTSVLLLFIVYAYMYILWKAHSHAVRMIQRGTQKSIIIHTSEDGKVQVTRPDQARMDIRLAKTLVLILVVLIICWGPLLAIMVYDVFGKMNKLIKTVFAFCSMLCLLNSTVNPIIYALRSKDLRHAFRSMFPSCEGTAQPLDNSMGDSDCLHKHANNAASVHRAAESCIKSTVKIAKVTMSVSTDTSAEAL
# Text: PathHunter™ β-Arrestin Assays
# β-Arrestins are multifunctional intracellular proteins that interact with a structurally diverse group of cell surface receptors including GPCRs, to regulate cellular functions (see, e.g., Violin and Lefkowitz, 2007).
# PathHunter™ enzyme fragment complementation is the most important method to measure β-arrestin recruitment. PathHunter™ β-Arrestin assays developed by DiscoveRX are revolutionary high-throughput screening assays for monitoring GPCR activation following ligand stimulation, without an imaging instrument, fluorescent protein tag, or radioactivity.
# Instead, the assays detect GPCR activation through binding of β-arrestin to the expressed GPCR of interest, and measure the interaction of the two proteins using enzyme fragment complementation (EFC). The EFC approach offers a range of benefits for screening; including signal amplification and robust performance.
# The larger portion of β-gal, termed EA for enzyme acceptor, is fused to the C-terminus of β-arrestin. The smaller, complementing fragment of β-gal, the ProLink™ tag, is expressed as a fusion protein with the GPCR of interest at the C-terminus. Upon activation, the GPCR is bound by β-arrestin. The interaction of β-arrestin and the GPCR forces the interaction of ProLink and EA, thus allowing complementation of the two fragments of β-gal and the formation of a functional enzyme capable of hydrolyzing substrate and generating a […] signal.
# Using the PathHunter™ CB1 kit from DiscoveRX, a cannabinoid CB1 receptor agonist is added and activates the receptor, EA, which is fused to the C-terminus of β-arrestin, and then interacts with the ProLink™ tag which is fused to the CB1 receptor. This will result in the […] signal that is recorded by a luminescence plate reader. The […] signal is directly related to the activation of the receptor, therefore a higher concentration of agonist will yield a larger […] signal. The cannabinoid agonist is added in increasing concentrations to obtain an agonist dose response curve. With pre-incubation of a potential allosteric modulator, either an enhancement of agonist signalling with an allosteric enhancer or a decrease in the maximal response of the agonist with an allosteric inhibitor is expected.
# All raw data are obtained as luminescence (relative light units), and are normalised and presented as a percentage of the maximal response for the endogenous cannabinoid CB1 receptor agonist anandamide (N-arachidonoylethanolamine).
# The PathHunter™ β-Arrestin assay (from DiscoveRX, Fremont, USA) was performed as follows. HEK293 CB1 β-arrestin cells were plated 48 hours before use and incubated at 37° C., 5% CO2 in a humidified incubator. Test compounds were dissolved in dimethylsulfoxide (DMSO) and diluted in optimized cell culture media (OCC, as supplied by DiscoveRX) media to the required concentrations. 5 μL of test compound or vehicle solution was added to each well and incubated for 60 minutes at 37° C., 5% CO2 in a humidified incubator. 5 μL of increasing concentrations of anandamide was added to each well followed by a 90 minute incubation at 37° C., 5% CO2 in a humidified incubator. 55 μL of detection reagent (as supplied by DiscoveRX) was then added, followed by a further 90 minute incubation at room temperature in the dark. Chemiluminescence, reported in relative light units (RLU—a dimensionless value, standardised as a % of maximum stimulation with anandamide), was measured on a standard luminescence plate reader.
# Data were plotted as % of maximal stimulation (Emax) caused by agonist versus the logarithm of concentration of agonist, in the presence or absence of a fixed concentration of test compound (modulator) or vehicle. For example, stimulation in the presence of agonist alone will give a value for stimulation expressed in RLU, which can be expressed as a range from 0% (at lowest agonist concentration, e.g., 1 nM) to 100% (at the highest agonist concentration, e.g., 10 μM). […]
# [2] = in vitro; conditions: both, microsomes, pH 7.4
# Experimental: Human and Rat Liver Microsomal Stability Assay
# The metabolic stability of the compounds of the Formula (I) was measured by determination of the rate of compound disappearance when incubated in the presence of both human and rat liver microsomes. Liver microsomes are prepared from the endoplasmic reticulum of hepatocytes and are the primary source of the most important enzymes (cytochrome P450) involved in drug metabolism. Study of drug stability in the presence of liver microsomes is accepted as a valuable model permitting rapid prediction of in vivo drug stability.
# Human and rat liver microsomes were obtained from a commercial source. Test compounds (3 μM) were incubated with pooled liver microsomes (male and female). Samples were incubated for a 45 minute period and removed at 5 time points and test compounds were analysed by LC-MS/MS.
# The final incubation volume was 25 μL. A control incubation was included for each compound tested, where 0.1 M phosphate buffer pH 7.4 was added instead of NADPH. The control compounds testosterone and 7-hydroxycoumarin were included in each experiment and all incubations were performed singularly for each compound.
# Each compound was incubated for 0, 5, 15, 30, and 45 minutes. The control (minus NADPH) was incubated for 45 minutes only. The reactions were stopped by the addition of 50 μL methanol containing internal standard at the appropriate time points. The incubation plates were centrifuged at 2500 rpm for 20 minutes at 4° C. to precipitate the protein.
# Following protein precipitation, the sample supernatants were combined in cassettes of up to 4 compounds and analysed using standard LC-MS/MS conditions.
# From a plot of the natural logarithm of the peak area ratio (i.e., the ratio of compound peak area:internal standard peak area) against time, the gradient of the line was determined. Subsequently, half-life and intrinsic clearance were calculated using the equations below: Eliminated Rate Constant (k)=(−Gradient).
# [3] = system: C57BL/6J mice; FAAH knockout mice; conditions: cited from earlier work
# [4] = system: CCI model; conditions: antagonized by rimonabant; cited from earlier work
# [5] = target: T2, CB1 receptor (Mus musculus, UniProt P47746); conditions: equilibrium binding assay; cited from earlier work
# T2 sequence (P47746 whole entry): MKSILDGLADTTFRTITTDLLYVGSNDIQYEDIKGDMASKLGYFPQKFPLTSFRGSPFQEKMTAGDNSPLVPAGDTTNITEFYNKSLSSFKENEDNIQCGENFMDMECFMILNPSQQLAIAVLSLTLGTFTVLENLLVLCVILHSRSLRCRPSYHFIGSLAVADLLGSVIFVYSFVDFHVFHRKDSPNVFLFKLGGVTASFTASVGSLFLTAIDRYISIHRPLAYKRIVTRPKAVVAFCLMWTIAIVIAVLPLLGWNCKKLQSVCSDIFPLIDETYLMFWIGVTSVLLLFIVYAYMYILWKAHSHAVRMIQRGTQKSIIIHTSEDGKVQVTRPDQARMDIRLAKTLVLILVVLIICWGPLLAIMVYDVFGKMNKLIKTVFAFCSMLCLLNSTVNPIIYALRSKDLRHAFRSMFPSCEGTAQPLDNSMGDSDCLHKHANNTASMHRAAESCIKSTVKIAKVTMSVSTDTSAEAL
# [6] = target: T2, CB1 receptor; set-up: from the CB1 receptor in mouse brain membranes; host or cells: mouse brain membranes; conditions: mouse brain membranes; cited from earlier work
smiles,measurement,setting,value
Cc1ccc2c(C(C[N+](=O)[O-])c3cccs3)c(-c3ccccc3)[nH]c2c1 (stereo not drawn) [ZCZ011],Potency % Enhancement 100 nM,[1],56.8%
same,Potency % Enhancement 1000 nM,[1],126.0%
same,half-life at 3 μM,[2]; human,36.7 min
same,microsomal CLint at 3 μM,[2]; human,37.8 µL/min/mg
same,half-life at 3 μM,[2]; rat,8.1 min
same,microsomal CLint at 3 μM,[2]; rat,127 µL/min/mg
same,"enhancement of the pharmacological effects of CP55,940","[3]; 40 mg/kg, C57BL/6J mice",significantly enhanced
same,enhancement of the pharmacological effects of AEA,"[3]; 40 mg/kg, fatty acid amide hydrolase (FAAH) knockout mice",significantly enhanced
same,potency of AEA in the drug discrimination assay,[3]; 40 mg/kg,significantly increasing
same,"catalepsy, thermal antinociception, hypothermia or changes in locomotor activity",[3]; given alone,did not produce
same,allodynia induced by mechanical (von Frey filaments) or cold (acetone) stimulation,[4],significantly reversed
"O=C(C(c1ccccc1)c1c(-c2ccccc2)[nH]c2ccccc12)C(F)(F)F (stereo not drawn) [ABD1139, 1,1,1-Trifluoro-3-phenyl-3-(2-phenyl-1H-indol-3-yl)propan-2-one]",Potency % Enhancement 300 nM,[1],0%
same,Potency % Enhancement 1000 nM,[1],18.6%
NC(=O)NCC(c1ccccc1)c1c(-c2ccccc2)[nH]c2ccccc12 (stereo not drawn) [ABD1011],Potency % Enhancement 1000 nM,[1],0%
NCC(c1ccccc1)c1c(-c2ccccc2)[nH]c2ccccc12 (stereo not drawn) [ABD1009a],Potency % Enhancement 1000 nM,[1],0%
O=S(=O)(NC(c1ccccc1)c1c(-c2ccccc2)[nH]c2ccccc12)c1ccccc1 (stereo not drawn) [ABD1098],Potency % Enhancement 1000 nM,[1],0%
"Cc1ccc2c(C(CC(F)(F)F)c3cccs3)c(-c3ccccc3)[nH]c2c1 (stereo not drawn) [ABD1187, 6-Methyl-2-phenyl-3-(3,3,3-trifluoro-1-(thiophen-2-yl)propyl)-1H-indole]",microsomal CLint at 3 μM,[2]; human,5 µL/min/mg
"Cc1ccc2c(C(CC(F)(F)F)c3ccccc3)c(-c3ccccc3)[nH]c2c1 (stereo not drawn) [ABD1145, 6-Methyl-2-phenyl-3-(3,3,3-trifluoro-1-phenylpropyl)-1H-indole]",Potency % Enhancement 100 nM,[1],45.5%
same,Potency % Enhancement 1000 nM,[1],61.9%
CCc1c(C(=O)NC2CCN(Cc3ccccc3)C2)[nH]c2ccc(Cl)cc12 (stereo not drawn) [ORG29647],binding of CP55940,[5],increase
same,binding of radiolabelled inverse agonist SR141716A,[5],decrease
same,dissociation of radiolabelled CB1 receptor agonist CP55940 from the CB1 receptor,[6],slowing of the dissociation
CCc1c(C(=O)NCCc2ccc(N3CCCCC3)cc2)[nH]c2ccc(Cl)cc12 [ORG27569],binding of CP55940,[5],increase
same,binding of radiolabelled inverse agonist SR141716A,[5],decrease
same,dissociation of radiolabelled CB1 receptor agonist CP55940 from the CB1 receptor,[6],slowing of the dissociation
c1ccc(-c2[nH]c3ccccc3c2-n2nnnc2-c2ccccc2)cc1 [ABD1077],Potency % Enhancement 1000 nM,[1],0%
"N#CC(C#N)C(c1ccccc1)c1c(-c2ccccc2)[nH]c2ccccc12 (stereo not drawn) [ABD1100, 2-(Phenyl(2-phenyl-1H-indol-3-yl)methyl)malononitrile]",Potency % Enhancement 300 nM,[1],0%
same,Potency % Enhancement 1000 nM,[1],19.6%
"Cc1ccc2c(C(CC#N)c3ccccc3)c(-c3ccccc3)[nH]c2c1 (stereo not drawn) [ABD1132, 3-(6-Methyl-2-phenyl-1H-indol-3-yl)-3-phenylpropanenitrile]",Potency % Enhancement 300 nM,[1],21.6%
same,Potency % Enhancement 1000 nM,[1],80.6%
CS(=O)(=O)NC(c1ccccc1)c1c(-c2ccccc2)[nH]c2ccccc12 (stereo not drawn) [ABD1097],Potency % Enhancement 1000 nM,[1],0%
O=C(O)CC(c1ccccc1)c1c(-c2ccccc2)[nH]c2ccc(Cl)cc12 (stereo not drawn) [ABD1003],Potency % Enhancement 1000 nM,[1],0%
"N#CCC(c1ccccc1)c1c(-c2ccccc2)[nH]c2ccccc12 (stereo not drawn) [ABD1102, 3-Phenyl-3-(2-phenyl-1H-indol-3-yl)propanenitrile]",Potency % Enhancement 300 nM,[1],0%
same,Potency % Enhancement 1000 nM,[1],21.9%
NNC(=O)CC(c1ccccc1)c1c(-c2ccccc2)[nH]c2ccccc12 (stereo not drawn) [ABD1131],Potency % Enhancement 1000 nM,[1],0%
CCc1c(C(=O)NCCc2ccc(N(C)C)cc2)[nH]c2ccc(F)cc12 [ORG27759],binding of CP55940,[5],increase
same,binding of radiolabelled inverse agonist SR141716A,[5],decrease
same,dissociation of radiolabelled CB1 receptor agonist CP55940 from the CB1 receptor,[6],slowing of the dissociation
"FC(F)(F)CC(c1ccccc1)c1c(-c2ccccc2)[nH]c2ccccc12 (stereo not drawn) [ABD1137, 2-Phenyl-3-(3,3,3-trifluoro-1-phenylpropyl)-1H-indole]",Potency % Enhancement 300 nM,[1],0%
same,Potency % Enhancement 1000 nM,[1],20.7%
O=C(O)CC(c1ccccc1)c1c(-c2ccccc2)[nH]c2ccccc12 (stereo not drawn) [ABD1101a],Potency % Enhancement 1000 nM,[1],0%
c1ccc(-c2[nH]c3ccccc3c2C(Cn2ccnn2)c2ccccc2)cc1 (stereo not drawn) [ABD1117],Potency % Enhancement 1000 nM,[1],0%
CNC(=O)CC(c1ccccc1)c1c(-c2ccccc2)[nH]c2ccccc12 (stereo not drawn) [ABD1106],Potency % Enhancement 1000 nM,[1],0%
Cc1ccc2c(C(C[N+](=O)[O-])c3ccccc3)c(-c3ccccc3)[nH]c2c1 (stereo not drawn) [ABD999],Potency % Enhancement 1000 nM,[1],76.8%
same,half-life at 3 μM,[2]; human,47.7 min
same,microsomal CLint at 3 μM,[2]; human,29.1 µL/min/mg
CS(=O)(=O)NCC(c1ccccc1)c1c(-c2ccccc2)[nH]c2ccccc12 (stereo not drawn) [ABD1009],Potency % Enhancement 1000 nM,[1],0%
NC(=O)CC(c1ccccc1)c1c(-c2ccccc2)[nH]c2ccccc12 (stereo not drawn) [ABD1105],Potency % Enhancement 1000 nM,[1],0%
c1ccc(-c2[nH]c3ccccc3c2-c2nnnn2-c2ccccc2)cc1 [ABD1078],Potency % Enhancement 1000 nM,[1],0%
"Cc1ccc2c(C(c3ccccc3)C(C#N)C#N)c(-c3ccccc3)[nH]c2c1 (stereo not drawn) [ABD1133, 2-((6-Methyl-2-phenyl-1H-indol-3-yl)(phenyl)methyl)malononitrile]",Potency % Enhancement 300 nM,[1],68.7%
same,Potency % Enhancement 1000 nM,[1],40.4%
"Cc1ccc2c(C(C(=O)C(F)(F)F)c3ccccc3)c(-c3ccccc3)[nH]c2c1 (stereo not drawn) [ABD1146, 1,1,1-Trifluoro-3-(6-methyl-2-phenyl-1H-indol-3-yl)-3-phenylpropan-2-one]",Potency % Enhancement 100 nM,[1],34.0%
same,Potency % Enhancement 1000 nM,[1],81.0%
"Cc1ccc2c(C(c3cccs3)C(C#N)C#N)c(-c3ccccc3)[nH]c2c1 (stereo not drawn) [ABD1155, 2-((6-Methyl-2-phenyl-1H-indol-3-yl)(thiophen-2-yl)methyl)malononitrile]",Potency % Enhancement 1000 nM,[1],67.4%
